Test results as given in US9718813B2, “Imidazolin-5-one derivative useful as FASN inhibitors for the treatment of cancer” (Janssen Pharmaceutica, NV, priority 2013, dated 2017).

Key:
[1] = molecular target: hFASN enzyme (full length) (Homo sapiens (Human), UniProt P49327); assay: Fatty Acid Synthase (FASN) Inhibition Scintillation Proximity Assay; assay type: biochemical; settings: 3H-acetyl-CoA and malonyl-CoA substrates, SPA, mean if tested more than once; for IC50: read-out: Human FASN pIC50 (converted)
Chain of hFASN enzyme (full length) (P49327 whole entry, the tested form may be a part): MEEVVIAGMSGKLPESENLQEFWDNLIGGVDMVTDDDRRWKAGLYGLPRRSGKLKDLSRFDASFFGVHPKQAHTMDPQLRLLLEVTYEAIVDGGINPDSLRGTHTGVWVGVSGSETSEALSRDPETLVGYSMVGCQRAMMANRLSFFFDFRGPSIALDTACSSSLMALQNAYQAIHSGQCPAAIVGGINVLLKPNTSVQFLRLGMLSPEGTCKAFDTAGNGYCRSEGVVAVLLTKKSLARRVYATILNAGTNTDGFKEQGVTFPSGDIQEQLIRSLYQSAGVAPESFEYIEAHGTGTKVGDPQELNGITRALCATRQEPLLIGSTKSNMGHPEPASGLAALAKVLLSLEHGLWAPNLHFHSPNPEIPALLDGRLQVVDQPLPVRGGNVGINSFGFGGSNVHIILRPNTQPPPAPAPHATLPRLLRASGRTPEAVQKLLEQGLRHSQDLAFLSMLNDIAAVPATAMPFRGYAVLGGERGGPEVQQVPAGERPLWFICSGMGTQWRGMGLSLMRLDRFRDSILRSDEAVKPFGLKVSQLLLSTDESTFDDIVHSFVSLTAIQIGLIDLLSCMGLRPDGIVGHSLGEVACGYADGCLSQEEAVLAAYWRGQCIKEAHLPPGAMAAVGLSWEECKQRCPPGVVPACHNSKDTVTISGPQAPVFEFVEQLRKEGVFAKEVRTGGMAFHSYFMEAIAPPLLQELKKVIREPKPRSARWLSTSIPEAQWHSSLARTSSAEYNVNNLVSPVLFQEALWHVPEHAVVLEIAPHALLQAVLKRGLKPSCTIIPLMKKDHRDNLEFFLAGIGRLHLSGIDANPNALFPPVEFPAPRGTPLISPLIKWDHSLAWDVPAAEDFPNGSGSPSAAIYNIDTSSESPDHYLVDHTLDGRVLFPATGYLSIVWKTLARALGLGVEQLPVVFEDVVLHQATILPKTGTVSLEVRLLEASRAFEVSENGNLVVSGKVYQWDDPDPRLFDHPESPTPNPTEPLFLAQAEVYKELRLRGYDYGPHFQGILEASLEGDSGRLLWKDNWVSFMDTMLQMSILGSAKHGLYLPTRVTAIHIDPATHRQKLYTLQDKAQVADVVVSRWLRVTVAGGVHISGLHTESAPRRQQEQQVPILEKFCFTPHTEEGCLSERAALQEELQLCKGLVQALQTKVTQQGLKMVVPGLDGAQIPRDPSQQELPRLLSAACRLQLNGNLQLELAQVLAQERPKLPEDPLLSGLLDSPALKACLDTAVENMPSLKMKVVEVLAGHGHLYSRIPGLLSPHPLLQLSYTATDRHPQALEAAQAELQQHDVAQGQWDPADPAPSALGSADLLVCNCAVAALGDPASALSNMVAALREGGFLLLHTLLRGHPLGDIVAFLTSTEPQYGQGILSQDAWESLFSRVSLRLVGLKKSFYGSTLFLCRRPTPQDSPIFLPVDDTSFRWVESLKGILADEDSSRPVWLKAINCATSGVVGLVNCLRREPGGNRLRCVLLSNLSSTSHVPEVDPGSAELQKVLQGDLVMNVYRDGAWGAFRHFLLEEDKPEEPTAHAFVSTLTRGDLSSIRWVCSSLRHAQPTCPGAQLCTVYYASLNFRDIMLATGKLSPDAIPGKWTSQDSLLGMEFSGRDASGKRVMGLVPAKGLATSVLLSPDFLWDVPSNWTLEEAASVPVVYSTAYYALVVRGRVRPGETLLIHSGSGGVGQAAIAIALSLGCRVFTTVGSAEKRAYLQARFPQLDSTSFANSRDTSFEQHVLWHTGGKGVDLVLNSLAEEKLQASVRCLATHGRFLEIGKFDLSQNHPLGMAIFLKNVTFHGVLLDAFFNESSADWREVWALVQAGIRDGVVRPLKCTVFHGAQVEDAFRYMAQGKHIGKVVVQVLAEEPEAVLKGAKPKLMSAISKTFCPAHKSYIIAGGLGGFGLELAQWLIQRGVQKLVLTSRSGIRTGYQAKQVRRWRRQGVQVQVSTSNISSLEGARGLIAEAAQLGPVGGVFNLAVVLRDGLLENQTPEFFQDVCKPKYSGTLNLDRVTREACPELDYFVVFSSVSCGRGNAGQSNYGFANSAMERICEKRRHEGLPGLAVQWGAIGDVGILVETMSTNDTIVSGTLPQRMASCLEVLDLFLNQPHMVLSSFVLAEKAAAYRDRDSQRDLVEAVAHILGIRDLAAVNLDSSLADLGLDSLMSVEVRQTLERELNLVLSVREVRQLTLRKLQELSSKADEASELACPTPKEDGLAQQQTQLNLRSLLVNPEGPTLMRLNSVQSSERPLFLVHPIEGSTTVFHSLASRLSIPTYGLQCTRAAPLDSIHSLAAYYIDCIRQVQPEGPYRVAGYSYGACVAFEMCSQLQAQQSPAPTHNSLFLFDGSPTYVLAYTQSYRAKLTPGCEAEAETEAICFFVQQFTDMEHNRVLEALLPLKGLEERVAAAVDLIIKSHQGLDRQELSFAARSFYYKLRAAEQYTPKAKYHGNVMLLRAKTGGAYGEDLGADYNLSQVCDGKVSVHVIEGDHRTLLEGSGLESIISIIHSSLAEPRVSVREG
Protocol: In this assay, inhibition of FASN activity is measured using ^3H-acetyl-CoA and malonyl-CoA as substrates. ^3H-Acetyl CoA is converted to ^3H-palmitate through a series of reactions by the FASN protein, which contains 7 functional domains and carries out 7 enzymatic reactions to ultimately produce ^3H-palmitate. The assay principle is based upon the fact that ^3H-acetyl-CoA is hydrophilic and the end product, ^3H-palmitate is hydrophobic.
10 μL assay buffer (100 mM KH2PO4 pH 7.5, 1 mM DTT) (20 μL in blanks) was added to a 384-well white Opti Plate plate (Perkin Elmer). 0.9 μL test compound (at concentrations of 30 μM, 10 μM, 3 μM, 1 μM, 0.30 μM, 0.10 μM, 0.03 μM and 0.01 μM)/DMSO and 10 μL hFASN enzyme (full length, 300 ng, purified in house) or 10 μL assay buffer was added to the wells. […] The reaction was stopped by adding 20 μL Streptavidin coupled imaging beads (25 mg/ml). After incubation for 30 minutes at room temperature in the dark, the 384 well plate was centrifuged at 1500 rpm for 3 minutes and was measured after at least 24 hrs by the LEADseeker™, measuring emission using a 610±20 nm pass filter.
(§1) Raw data generated by the instrument were normalized to % Controlmin values, which were calculated as: % Controlmin=100*(x−mLC)/(mHC−mLC)
(§2) where mLC and mHC were the means of the low control wells and high control wells on the plate, after manual exclusion of outliers. A plot of Controlmin versus test compound concentration was fitted to a 4-parameter logistic curve using a non-linear least squares regression method.

[2] = molecular target: FASN Keto-reductase Domain (hFASN enzyme, full length) (Homo sapiens (Human), UniProt P49327); assay: Fatty Acid Synthase Keto-reductase Domain (FASN KR) Inhibition; assay type: biochemical; settings: NADPH oxidation at 340 nm, ethyl acetoacetate substrate; for IC50: read-out: FASN Keto-reductase Domain pIC50 (converted)
Chain of FASN Keto-reductase Domain (hFASN enzyme, full length) (P49327 whole entry, the tested form may be a part): as above
Protocol: After 20 minutes incubation at room temperature the plate was measured again (T2).
The decrease in absorbance was calculated as (Absorbance before incubation T1)−(Absorbance following incubation T2).
as §1, §2

| Structure (SMILES) | Human FASN pIC50 [1] | FASN Keto-reductase Domain pIC50 [2] | IC50 [1] [nM] | IC50 [2] [nM] |
| --- | --- | --- | --- | --- |
| CC1(C)N=C(c2ccc(-c3ccc(-c4ccncc4)cc3)cc2)N(CC2CN(C(=O)C3CC3)C2)C1=O [Compound 26, 1-((1-(cyclopropanecarbonyl)azetidin-3-yl)methyl)-4,4-dimethyl-2-(4′-(pyridin-4-yl)-[1,1′-biphenyl]-4-yl)-1H-imidazol-5(4H)-one] | ~6.22 | 6.08 |  |  |
| Cn1ncc2cc(-c3ccc(C4=NC(C)(C)C(=O)N4CC4CN(C(=O)C5(O)CC5)C4)c(F)c3)ccc21 [Compound 78, 2-(2-fluoro-4-(1-methyl-1H-indazol-5-yl)phenyl)-1-((1-(1-hydroxycyclopropanecarbonyl)azetidin-3-yl)methyl)-4,4-dimethyl-1H-imidazol-5(4H)-one] | 6.61 | 6.19 |  |  |
| CC1(C)N=C(c2ccc(-c3ccc(-c4ccncc4)cc3)cc2)N(C[C@@H]2CCN(C(=O)C3CC3)C2)C1=O [Compound 15, (R)-1-((1-(cyclopropanecarbonyl)pyrrolidin-3-yl)methyl)-4,4-dimethyl-2-(4′-(pyridin-4-yl)-[1,1′-biphenyl]-4-yl)-1H-imidazol-5(4H)-one] | 7.40 | 6.75 |  |  |
| CC1(C)N=C(c2ccc(-c3cnc4ccccc4c3)cc2)N(C[C@@H]2CCN(C(=O)C3CC3)C2)C1=O [Compound 25, (R)-1-((1-(cyclopropanecarbonyl)pyrrolidin-3-yl)methyl)-4,4-dimethyl-2-(4-(quinolin-3-yl)phenyl)-1H-imidazol-5(4H)-one] | 6.15 | 6.17 |  |  |
| CC1(C)N=C(c2ccc(-c3ccc4cccnc4c3)cc2)N(C[C@@H]2CCN(C(=O)C3CC3)C2)C1=O [Compound 23, (R)-1-((1-(cyclopropanecarbonyl)pyrrolidin-3-yl)methyl)-4,4-dimethyl-2-(4-(quinolin-7-yl)phenyl)-1H-imidazol-5(4H)-one] | 7.25 | 7.25 |  |  |
| COCC1(C)N=C(c2ccc(-c3ccc4occc4c3)cc2)N(C[C@@H]2CCN(C(=O)C3CC3)C2)C1=O (mixture of isomers) [Compound 8, (4RS)-2-(4-(Benzofuran-5-yl)phenyl)-1-(((R)-1-(cyclopropanecarbonyl)pyrrolidin-3-yl)methyl)-4-(methoxymethyl)-4-methyl-1H-imidazol-5(4H)-one] |  |  | 240 | 389 |
| CC1(C)N=C(c2ccc(-c3nc4ccccc4o3)cc2)N(C[C@@H]2CCN(C(=O)C3CC3)C2)C1=O [Compound 11, (R)-2-(4-(benzo[d]oxazol-2-yl)phenyl)-1-((1-(cyclopropanecarbonyl)pyrrolidin-3-yl)methyl)-4,4-dimethyl-1H-imidazol-5(4H)-one] | 6.20 | 5.41 |  |  |
| CC1(C)N=C(c2ccc(-c3cccc4ncccc34)cc2F)N(C[C@@H]2CCN(C(=O)C3CC3)C2)C1=O [Compound 47, (R)-1-((1-(cyclopropanecarbonyl)pyrrolidin-3-yl)methyl)-2-(2-fluoro-4-(quinolin-5-yl)phenyl)-4,4-dimethyl-1H-imidazol-5(4H)-one] | 6.78 | 6.52 |  |  |
| CC1(C2CC2)N=C(c2ccc(-c3ccc4occc4c3)cc2)N(C[C@@H]2CCN(C(=O)C3CC3)C2)C1=O (mixture of isomers) [Compound 9, (4RS)-2-(4-(Benzofuran-5-yl)phenyl)-1-(((R)-1-(cyclopropanecarbonyl)pyrrolidin-3-yl)methyl)-4-cyclopropyl-4-methyl-1H-imidazol-5(4H)-one] |  |  | 331 | 603 |
| Cc1cc(-c2ccc3c(c2)ncn3C)ccc1C1=NC(C)(C)C(=O)N1CC1CN(C(=O)C2(C)CC2)C1 [Compound 83, 4,4-dimethyl-2-(2-methyl-4-(1-methyl-1H-benzo[d]imidazol-5-yl)phenyl)-1-((1-(1-methylcyclopropanecarbonyl)azetidin-3-yl)methyl)-1H-imidazol-5(4H)-one] | 6.99 | 6.76 |  |  |
| CC1(C)N=C(c2ccc(-c3ccc4cnccc4c3)cc2)N(CC2CN(C(=O)C3CC3)C2)C1=O [Compound 27, 1-((1-(cyclopropanecarbonyl)azetidin-3-yl)methyl)-2-(4-(isoquinolin-6-yl)phenyl)-4,4-dimethyl-1H-imidazol-5(4H)-one] | 6.72 | 6.41 |  |  |
| Cn1cc(-c2ccc(-c3ccc(C4=NC(C)(C)C(=O)N4C[C@@H]4CCN(C(=O)C5CC5)C4)c(F)c3)cc2)cn1 [Compound 45, (R)-1-((1-(cyclopropanecarbonyl)pyrrolidin-3-yl)methyl)-2-(3-fluoro-4-(1-methyl-1H-pyrazol-4-yl)-[1,1′-biphenyl]-4-yl)-4,4-dimethyl-1H-imidazol-5(4H)-one] | 7.20 | 6.95 |  |  |
| CC1(C)N=C(c2ccc(-c3ccc4[nH]ccc4c3)cc2)N(C[C@@H]2CCN(C(=O)C3CC3)C2)C1=O [Compound 1, (R)-2-(4-(1H-Indol-5-yl)phenyl)-1-((1-(cyclopropanecarbonyl)pyrrolidin-3-yl)methyl)-4,4-dimethyl-1H-imidazol-5(4H)-one] | 7.32 | 6.86 |  |  |
| Cn1cc(-c2ccc(-c3ccc(C4=NC(C)(C)C(=O)N4C[C@@H]4CCN(C(=O)C5CC5)C4)cc3)cc2)cn1 [Compound 16, (R)-1-((1-(cyclopropanecarbonyl)pyrrolidin-3-yl)methyl)-4,4-dimethyl-2-(4′-(1-methyl-1H-pyrazol-4-yl)-[1,1′-biphenyl]-4-yl)-1H-imidazol-5(4H)-one] | 6.99 | 6.20 |  |  |
| CC1(C)N=C(c2ccc(-c3cccc4ncccc34)cc2)N(C[C@@H]2CCN(C(=O)C3CC3)C2)C1=O [Compound 31, (R)-1-((1-(cyclopropanecarbonyl)pyrrolidin-3-yl)methyl)-4,4-dimethyl-2-(4-(quinolin-5-yl)phenyl)-1H-imidazol-5(4H)-one] | 6.72 | 6.33 |  |  |

Now from value to molecule, other results behind:

| Human FASN pIC50 [1] | FASN Keto-reductase Domain pIC50 [2] | Structure (SMILES) | IC50 [1] [nM] | IC50 [2] [nM] |
| --- | --- | --- | --- | --- |
| 7.46 | 6.60 | CC1(C)N=C(c2ccc(-c3ccc4cccc(F)c4c3)cc2F)N(CC2CN(C(=O)C3CC3)C2)C1=O [Compound 55, 1-((1-(cyclopropanecarbonyl)azetidin-3-yl)methyl)-2-(2-fluoro-4-(8-fluoronaphthalen-2-yl)phenyl)-4,4-dimethyl-1H-imidazol-5(4H)-one] |  |  |
| 7.37 | 7.60 | Cc1cc(-c2ccc3cc(F)ccc3c2)ccc1C1=NC(C)(C)C(=O)N1C[C@@H]1CCN(C(=O)C2(C)CC2)C1 [Compound 86, (R)-2-(4-(6-fluoronaphthalen-2-yl)-2-methylphenyl)-4,4-dimethyl-1-((1-(1-methylcyclopropanecarbonyl)pyrrolidin-3-yl)methyl)-1H-imidazol-5(4H)-one] |  |  |
| 6.80 | 6.57 | CC1(C)N=C(c2ccc(-c3ccc(-c4ccncc4)cc3)cc2F)N(CC2CN(C(=O)C3CC3)C2)C1=O [Compound 22, 1-((1-(cyclopropanecarbonyl)azetidin-3-yl)methyl)-2-(3-fluoro-4′-(pyridin-4-yl)-[1,1′-biphenyl]-4-yl)-4,4-dimethyl-1H-imidazol-5(4H)-one] |  |  |
| 7.02 | 6.62 | CC1(C)N=C(c2ccc(-c3ccc4cc(F)ccc4c3)cc2)N(CC2CN(C(=O)C3CC3)C2)C1=O [Compound 29, 1-((1-(cyclopropanecarbonyl)azetidin-3-yl)methyl)-2-(4-(6-fluoronaphthalen-2-yl)phenyl)-4,4-dimethyl-1H-imidazol-5(4H)-one] |  |  |
| 7.55 | 6.55 | CC1(C)N=C(c2ccc(-c3ccc4cc(F)ccc4c3)cc2F)N(CC2CN(C(=O)C3CC3)C2)C1=O [Compound 54, 1-((1-(cyclopropanecarbonyl)azetidin-3-yl)methyl)-2-(2-fluoro-4-(6-fluoronaphthalen-2-yl)phenyl)-4,4-dimethyl-1H-imidazol-5(4H)-one] |  |  |
| 7.26 | 7.17 | CC1(C)N=C(c2ccc(-c3ccc4cc(F)ccc4c3)cc2)N(C[C@@H]2CCN(C(=O)C3CC3)C2)C1=O [Compound 30, (R)-1((1-(cyclopropanecarbonyl)pyrrolidin-3-yl)methyl)-2-(4-(6-fluoronaphthalen-2-yl)phenyl)-4,4-dimethyl-1H-imidazol-5(4H)-one] |  |  |
